Source: ChEMBL document CHEMBL5696443 (Clin Cancer Res, 2016)
The source made the active and inactive calls. No cut-off for these calls is given here.

Key:
[1] = target: Protein kinase C eta type (Homo sapiens) (UniProt P24723); test: Inhibition of human PKCeta at 1 uM using ERMRPRKRQGSVRRRV as substrate in presence of [gamma33P]-ATP by HotSpot assay relative to control
[2] = target: Calcium/calmodulin-dependent protein kinase type II subunit beta (Homo sapiens) (UniProt Q13554); test: Inhibition of human CAMK2b at 1 uM using KKALRRQETVDAL as substrate in presence of [gamma33P]-ATP by HotSpot assay relative to control
[3] = target: Aurora kinase C (Homo sapiens, UniProt Q9UQB9); test: Inhibition of human AURKC using H-LRRASLG as substrate in presence of [gamma33P]-ATP by HotSpot assay
[4] = tested on: EML4-ALK (Homo sapiens), Q9UM73+Q9HC35 [S1206F]; settings: BaF3, dose 500.0 nmol/L, time 3-5 weeks
[5] = tested on: EML4-ALK (Homo sapiens), Q9UM73+Q9HC35 [F1174I]; settings: BaF3, dose 200.0 nmol/L, time 3-5 weeks
[6] = target: Tyrosine-protein kinase receptor UFO (Homo sapiens) (UniProt P30530); test: Inhibition of human AXL at 1 uM using poly (Glu, Tyr)4:1 as substrate in presence of [gamma33P]-ATP by HotSpot assay relative to control
[7] = target: Megakaryocyte-associated tyrosine-protein kinase (Homo sapiens) (UniProt P42679); test: Inhibition of human MATK at 1 uM using poly (Glu, Tyr)4:1 as substrate in presence of [gamma33P]-ATP by HotSpot assay relative to control
[8] = target: Myosin light chain kinase, smooth muscle (Homo sapiens) (UniProt Q15746); test: Inhibition of human MYLK at 1 uM using KKLNRTLSFAEPG as substrate in presence of [gamma33P]-ATP by HotSpot assay relative to control
[9] = target: Dual specificity tyrosine-phosphorylation-regulated kinase 1B (Homo sapiens) (UniProt Q9Y463); test: Inhibition of human DYRK1B at 1 uM using RRRFRPASPLRGPPK as substrate in presence of [gamma33P]-ATP by HotSpot assay relative to control
[10] = tested on: KARPAS-299; test: Antitumor activity against ALK positive human KARPAS-299 cells xenografted in SCID beige mouse assessed as tumor growth inhibition at 25 mg/kg, po administered once daily for 14 days relative to control; assay type: functional; settings: time 14 day
[11] = target: G protein-coupled receptor kinase 6 (Homo sapiens) (UniProt P43250); test: Inhibition of human GRK6 at 1 uM using casein as substrate in presence of [gamma33P]-ATP by HotSpot assay relative to control
[12] = target: Casein kinase II subunit alpha (Homo sapiens) (UniProt P68400); test: Inhibition of human CK2a at 1 uM using RRRDDDSDDD as substrate in presence of [gamma33P]-ATP by HotSpot assay relative to control
[13] = in vitro; settings: mouse, BaF3 cells
[14] = target: Homeodomain-interacting protein kinase 4 (Homo sapiens) (UniProt Q8NE63); test: Inhibition of human HIPK4 at 1 uM using MBP as substrate in presence of [gamma33P]-ATP by HotSpot assay relative to control
[15] = target: Mitogen-activated protein kinase kinase kinase 7 (Homo sapiens) (UniProt O43318); test: Inhibition of human MAP3K7 at 1 uM using casein as substrate in presence of [gamma33P]-ATP by HotSpot assay relative to control
[16] = tested on: EML4-ALK (Homo sapiens), Q9UM73+Q9HC35 [L1198F]; settings: BaF3, dose 500.0 nmol/L, time 3-5 weeks
[17] = tested on: NCI-H3122; test: Inhibition of ERK phosphorylation in ALK-positive human NCI-H3122 cells at 1 to 1000 nM incubated for 1 hrs by immunoblot analysis; assay type: cell-based; settings: dose 1-1000 nM
[18] = target: CDK3/Cyclin E (Homo sapiens) (UniProt P24864+Q00526); test: Inhibition of human CDK3/CyclinE at 1 uM using RB protein as substrate in presence of [gamma33P]-ATP by HotSpot assay relative to control; assay type: protein-complex assay
[19] = tested on: BaF3; test: Antitumor activity against mouse BaF3 cells expressing native EML4-ALK implanted in mouse assessed as tumor regression at 25 mg/kg, po administered once daily and measured after 8 days relative to control; assay type: functional; settings: time 8 day
[20] = target: Mitogen-activated protein kinase kinase kinase kinase 4 (Homo sapiens) (UniProt O95819); test: Inhibition of human MAP4K4 at 1 uM using MBP as substrate in presence of [gamma33P]-ATP by HotSpot assay relative to control
[21] = tested on: Platelet-derived growth factor receptor alpha (Homo sapiens), P16234 [V561D]; test: Inhibition of human PDGFRalpha V561D mutant at 1 uM using poly (Glu, Tyr)4:1 as substrate in presence of [gamma33P]-ATP by HotSpot assay relative to control
[22] = target: Mitogen-activated protein kinase 13 (Homo sapiens) (UniProt O15264); test: Inhibition of human MAPK13 at 1 uM using MBP as substrate in presence of [gamma33P]-ATP by HotSpot assay relative to control
[23] = tested on: EML4-ALK (Homo sapiens), Q9UM73+Q9HC35 [I1171N]; settings: BaF3, dose 750.0 nmol/L, time 3-5 weeks
[24] = tested on: EML4-ALK (Homo sapiens), Q9UM73+Q9HC35 [UNDEFINED MUTATION]; settings: BaF3, dose 500.0 nmol/L, time 3-5 weeks
[25] = target: Serine/threonine-protein kinase BRSK1 (Homo sapiens, UniProt Q8TDC3); test: Inhibition of human BRSK1 using KKKVSRSGLYRSPSMPENLNRPR as substrate in presence of [gamma33P]-ATP by HotSpot assay
[26] = target: cGMP-dependent protein kinase 2 (Homo sapiens) (UniProt Q13237); test: Inhibition of human PRKG2 at 1 uM using LRRASLG as substrate in presence of [gamma33P]-ATP by HotSpot assay relative to control
[27] = target: Mitogen-activated protein kinase 8 (Homo sapiens) (UniProt P45983); test: Inhibition of human JNK1a1 at 1 uM using ATF2 as substrate in presence of [gamma33P]-ATP by HotSpot assay relative to control
[28] = target: Serine/threonine-protein kinase N2 (Homo sapiens) (UniProt Q16513); test: Inhibition of human PKN2 at 1 uM using LRRASLG as substrate in presence of [gamma33P]-ATP by HotSpot assay relative to control
[29] = tested on: EML4-ALK (Homo sapiens), Q9UM73+Q9HC35 [I1171N]; settings: BaF3, time 3-5 weeks

Serine/threonine-protein kinase BRSK1, sequence (Q8TDC3 whole entry): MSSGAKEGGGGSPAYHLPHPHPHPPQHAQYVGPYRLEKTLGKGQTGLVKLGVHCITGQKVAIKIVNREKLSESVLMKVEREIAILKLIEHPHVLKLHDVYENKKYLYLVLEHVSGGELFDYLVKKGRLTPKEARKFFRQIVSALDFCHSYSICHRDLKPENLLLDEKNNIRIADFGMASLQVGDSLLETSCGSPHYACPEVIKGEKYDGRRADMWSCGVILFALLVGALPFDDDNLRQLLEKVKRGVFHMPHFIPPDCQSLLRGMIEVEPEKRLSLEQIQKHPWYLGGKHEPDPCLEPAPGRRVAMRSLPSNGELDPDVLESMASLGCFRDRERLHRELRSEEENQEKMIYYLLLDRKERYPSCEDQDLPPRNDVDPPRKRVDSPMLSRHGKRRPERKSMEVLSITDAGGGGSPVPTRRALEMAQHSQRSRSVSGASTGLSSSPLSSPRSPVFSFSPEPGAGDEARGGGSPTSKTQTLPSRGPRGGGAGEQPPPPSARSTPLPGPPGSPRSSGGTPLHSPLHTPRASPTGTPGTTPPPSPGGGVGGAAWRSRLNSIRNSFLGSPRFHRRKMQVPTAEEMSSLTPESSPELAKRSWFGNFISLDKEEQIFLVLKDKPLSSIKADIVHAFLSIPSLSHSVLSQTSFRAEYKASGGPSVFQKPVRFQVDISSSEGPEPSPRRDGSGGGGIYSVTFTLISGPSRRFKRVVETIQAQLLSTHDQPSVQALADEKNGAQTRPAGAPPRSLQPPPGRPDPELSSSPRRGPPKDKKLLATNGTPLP
Protein kinase C eta type (Homo sapiens), sequence (P24723 whole entry): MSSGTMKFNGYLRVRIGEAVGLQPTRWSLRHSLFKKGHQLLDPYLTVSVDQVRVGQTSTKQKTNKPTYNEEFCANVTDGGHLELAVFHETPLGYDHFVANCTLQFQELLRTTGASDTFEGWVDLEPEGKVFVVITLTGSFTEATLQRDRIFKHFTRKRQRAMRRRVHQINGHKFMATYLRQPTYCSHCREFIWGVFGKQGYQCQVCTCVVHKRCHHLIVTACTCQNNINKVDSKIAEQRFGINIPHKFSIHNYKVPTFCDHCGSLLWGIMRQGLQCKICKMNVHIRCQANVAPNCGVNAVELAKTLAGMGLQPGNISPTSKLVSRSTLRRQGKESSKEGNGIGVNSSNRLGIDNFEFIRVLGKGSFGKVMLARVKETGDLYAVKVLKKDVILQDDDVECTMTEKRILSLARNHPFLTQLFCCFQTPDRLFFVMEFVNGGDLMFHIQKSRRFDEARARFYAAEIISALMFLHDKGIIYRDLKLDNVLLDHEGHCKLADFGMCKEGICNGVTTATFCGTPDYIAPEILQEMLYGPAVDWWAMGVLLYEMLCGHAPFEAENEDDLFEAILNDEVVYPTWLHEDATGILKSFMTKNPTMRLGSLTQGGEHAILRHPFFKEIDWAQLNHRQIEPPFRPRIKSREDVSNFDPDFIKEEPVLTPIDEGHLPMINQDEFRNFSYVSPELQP
Myosin light chain kinase, smooth muscle (Homo sapiens), sequence (Q15746 whole entry): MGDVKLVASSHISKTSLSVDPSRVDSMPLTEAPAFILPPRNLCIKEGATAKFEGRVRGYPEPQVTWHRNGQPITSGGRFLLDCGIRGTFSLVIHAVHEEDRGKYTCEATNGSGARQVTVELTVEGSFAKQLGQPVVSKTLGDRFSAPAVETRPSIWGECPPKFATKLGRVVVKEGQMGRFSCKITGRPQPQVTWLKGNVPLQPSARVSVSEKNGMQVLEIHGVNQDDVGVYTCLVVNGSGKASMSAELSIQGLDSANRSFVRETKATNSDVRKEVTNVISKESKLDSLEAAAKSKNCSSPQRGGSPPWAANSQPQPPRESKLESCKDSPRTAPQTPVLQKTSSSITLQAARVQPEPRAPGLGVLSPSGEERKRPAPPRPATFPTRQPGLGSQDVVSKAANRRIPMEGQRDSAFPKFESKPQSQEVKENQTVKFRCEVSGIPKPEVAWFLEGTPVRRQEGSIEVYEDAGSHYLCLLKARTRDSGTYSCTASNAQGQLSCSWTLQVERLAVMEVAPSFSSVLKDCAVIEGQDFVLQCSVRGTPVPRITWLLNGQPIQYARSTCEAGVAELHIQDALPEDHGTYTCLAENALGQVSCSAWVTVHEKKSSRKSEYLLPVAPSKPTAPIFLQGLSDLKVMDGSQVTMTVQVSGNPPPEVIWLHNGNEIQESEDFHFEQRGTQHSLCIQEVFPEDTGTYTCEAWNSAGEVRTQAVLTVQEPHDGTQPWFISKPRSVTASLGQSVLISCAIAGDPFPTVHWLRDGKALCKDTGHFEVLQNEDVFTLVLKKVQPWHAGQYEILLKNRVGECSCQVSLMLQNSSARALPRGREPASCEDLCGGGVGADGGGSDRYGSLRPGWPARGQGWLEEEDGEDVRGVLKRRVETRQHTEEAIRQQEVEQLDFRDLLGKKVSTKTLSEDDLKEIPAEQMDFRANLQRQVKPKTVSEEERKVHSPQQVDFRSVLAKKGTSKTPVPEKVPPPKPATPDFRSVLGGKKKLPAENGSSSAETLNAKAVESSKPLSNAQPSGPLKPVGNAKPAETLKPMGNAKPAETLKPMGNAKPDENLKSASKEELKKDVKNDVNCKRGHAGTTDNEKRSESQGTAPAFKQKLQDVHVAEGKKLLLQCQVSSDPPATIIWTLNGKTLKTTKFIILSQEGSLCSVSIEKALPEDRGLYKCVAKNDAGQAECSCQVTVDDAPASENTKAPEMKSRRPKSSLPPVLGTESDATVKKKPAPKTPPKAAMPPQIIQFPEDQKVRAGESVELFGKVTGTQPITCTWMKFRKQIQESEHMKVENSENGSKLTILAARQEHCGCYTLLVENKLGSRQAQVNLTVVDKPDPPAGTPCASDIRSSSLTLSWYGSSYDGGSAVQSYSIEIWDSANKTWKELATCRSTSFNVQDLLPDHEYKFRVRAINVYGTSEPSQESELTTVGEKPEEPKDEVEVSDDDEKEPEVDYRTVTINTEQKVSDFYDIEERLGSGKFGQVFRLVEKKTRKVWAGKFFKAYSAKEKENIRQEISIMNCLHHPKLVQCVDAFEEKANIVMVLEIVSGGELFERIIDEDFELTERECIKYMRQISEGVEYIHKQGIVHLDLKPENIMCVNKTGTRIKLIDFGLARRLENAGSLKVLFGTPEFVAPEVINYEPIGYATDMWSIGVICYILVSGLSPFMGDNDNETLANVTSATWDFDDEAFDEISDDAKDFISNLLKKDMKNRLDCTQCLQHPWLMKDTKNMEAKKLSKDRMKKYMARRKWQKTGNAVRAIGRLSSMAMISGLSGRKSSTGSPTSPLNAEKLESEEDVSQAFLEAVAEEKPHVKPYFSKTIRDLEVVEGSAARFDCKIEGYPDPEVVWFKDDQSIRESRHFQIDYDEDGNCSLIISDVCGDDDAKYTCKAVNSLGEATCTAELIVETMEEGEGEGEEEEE
Mitogen-activated protein kinase 13 (Homo sapiens), sequence (O15264 whole entry): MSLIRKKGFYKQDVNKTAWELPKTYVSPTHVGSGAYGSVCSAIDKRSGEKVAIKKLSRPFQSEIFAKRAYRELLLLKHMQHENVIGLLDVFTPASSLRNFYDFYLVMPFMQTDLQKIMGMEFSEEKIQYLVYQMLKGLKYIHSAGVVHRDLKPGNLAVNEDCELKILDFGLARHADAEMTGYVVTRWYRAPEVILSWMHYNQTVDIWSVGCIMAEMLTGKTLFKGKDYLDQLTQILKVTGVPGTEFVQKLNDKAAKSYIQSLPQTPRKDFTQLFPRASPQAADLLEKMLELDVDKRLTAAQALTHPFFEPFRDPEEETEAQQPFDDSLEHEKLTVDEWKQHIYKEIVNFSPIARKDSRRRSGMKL
Casein kinase II subunit alpha (Homo sapiens), sequence (P68400 whole entry, looked up): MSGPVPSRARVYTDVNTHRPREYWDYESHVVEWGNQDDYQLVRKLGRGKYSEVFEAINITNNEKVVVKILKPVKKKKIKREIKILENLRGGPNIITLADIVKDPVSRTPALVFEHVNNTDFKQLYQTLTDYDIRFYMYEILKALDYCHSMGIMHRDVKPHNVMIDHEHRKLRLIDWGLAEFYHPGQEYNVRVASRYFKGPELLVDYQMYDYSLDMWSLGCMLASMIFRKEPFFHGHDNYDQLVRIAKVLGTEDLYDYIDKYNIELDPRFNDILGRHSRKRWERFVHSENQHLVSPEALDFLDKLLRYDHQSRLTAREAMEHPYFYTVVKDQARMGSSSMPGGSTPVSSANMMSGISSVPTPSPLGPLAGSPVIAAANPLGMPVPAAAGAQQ
cGMP-dependent protein kinase 2 (Homo sapiens), sequence (Q13237 whole entry): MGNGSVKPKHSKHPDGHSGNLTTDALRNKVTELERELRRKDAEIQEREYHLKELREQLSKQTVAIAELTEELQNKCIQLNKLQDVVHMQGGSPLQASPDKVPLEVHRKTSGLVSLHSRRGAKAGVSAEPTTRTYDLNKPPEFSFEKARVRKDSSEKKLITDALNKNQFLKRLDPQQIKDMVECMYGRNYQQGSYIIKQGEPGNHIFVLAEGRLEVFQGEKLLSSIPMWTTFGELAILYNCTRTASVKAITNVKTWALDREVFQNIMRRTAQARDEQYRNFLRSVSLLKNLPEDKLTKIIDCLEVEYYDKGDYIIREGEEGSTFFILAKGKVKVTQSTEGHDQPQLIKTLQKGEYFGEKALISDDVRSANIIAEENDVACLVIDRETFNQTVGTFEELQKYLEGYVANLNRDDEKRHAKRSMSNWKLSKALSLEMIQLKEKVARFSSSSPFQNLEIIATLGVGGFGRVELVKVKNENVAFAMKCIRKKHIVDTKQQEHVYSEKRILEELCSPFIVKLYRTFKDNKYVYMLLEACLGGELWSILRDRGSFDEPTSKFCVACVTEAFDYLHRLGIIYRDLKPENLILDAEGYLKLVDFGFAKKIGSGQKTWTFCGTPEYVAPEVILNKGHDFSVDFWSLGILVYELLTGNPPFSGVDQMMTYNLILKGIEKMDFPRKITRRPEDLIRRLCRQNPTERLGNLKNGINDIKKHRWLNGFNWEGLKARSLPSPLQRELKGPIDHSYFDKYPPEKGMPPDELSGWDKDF

With `COc1cc(N2CCC(N3CCN(C)CC3)CC2)ccc1Nc1ncc(Cl)c(Nc2ccccc2P(C)(C)=O)n1` [BRIGATINIB] as the compound, how does the inhibition [1] read?
The inhibition was < 90%.

What about the inhibition [2] of the same compound?
The inhibition was < 90%.

And the IC50 [3]?
The IC50 was > 1 µM.

And the inhibition [4]?
Its inhibition is “Active”.

What about the inhibition [5] of the same compound?
The inhibition was “inactive”.

What about the inhibition [6] of the same compound?
The inhibition was < 90%.

And the inhibition [7]?
The inhibition was < 90%.

And the inhibition [8]?
The inhibition was < 90%.

What about the inhibition [9] of the same compound?
The inhibition was < 90%.

And the TGI [10]?
Its TGI is 87%.

And the inhibition [11]?
Its inhibition is < 90%.

What about the inhibition [12] of the same compound?
The inhibition was < 90%.

What about the IC50 [13] of the same compound?
Its IC50 is 3.21 µM.

What about the IC90 [13] of the same compound?
Its IC90 is 9.5 µM.

What about the inhibition [14] of the same compound?
The inhibition was < 90%.

And the inhibition [15]?
Its inhibition is < 90%.

What about the inhibition [16] of the same compound?
The inhibition was “Active”.

And the inhibition [17]?
Its inhibition is “Active”.

What about the inhibition [18] of the same compound?
Its inhibition is < 90%.

What about the Activity [19] of the same compound?
Its Activity is 100%.

What about the inhibition [20] of the same compound?
Its inhibition is < 90%.

What about the inhibition [21] of the same compound?
Its inhibition is < 90%.

What about the inhibition [22] of the same compound?
Its inhibition is < 90%.

And the inhibition [23]?
Its inhibition is “Active”.

And the inhibition [24]?
Its inhibition is “Active”.

And the IC50 [25]?
Its IC50 is 0.338 µM.

What about the inhibition [26] of the same compound?
The inhibition was < 90%.

What about the inhibition [27] of the same compound?
Its inhibition is < 90%.

And the inhibition [28]?
Its inhibition is < 90%.

What about the IC90 [29] of the same compound?
The IC90 was 0.278 µM.
